For 4 compounds, IC50, Human and MIC results are on record in patent US10570179B2, “Substituted urea depsipeptide analogs as activators of the CLPP endopeptidase” (priority 2016, dated 2020).

The target of series [1] is T1, Sa-ClpP (Staphylococcus aureus, UniProt Q2G036).
T1 construct: made in house; host or cells: E. coli BL21 (DE3)
As to the kind of experiment: ADEP displacement fluorescence polarization assay. Format: binding, S. aureus. To be noted: displacement of FP probe ADEP 2591 from Sa-ClpP. The protocol:
A fluorescence polarization (FP) assay was used to determine the activity of the disclosed compounds in displacing an ADEP analogue from ClpP. Briefly, the assay was performed in black 384 well, flat bottom, low volume plates (Greiner Bio-One, Monroe, N.C., catalog #784076). 20 μL of a pre-equilibrated (1 hr, room temperature) master mix (15 μM Sa-ClpP, 2% DMSO (v/v) and 50 nM FP probe in TrisHCl, pH 8.0)) was pipetted into each well using a Well-Mate (Thermo Scientific, Waltham, Mass.). Sa-ClpP was prepared as described above for the ClpP activation assay. The FP probe was ADEP 2591 (structure shown above). The ADEP 2591 comprises a TAMRA fluorophore linked to a core based on modified ADEP 2378 via a short alkyl linker. Using pin transfer, approximately 0.4 μL (2% v/v DMSO) of each compound or control was added per well. After addition of compounds and controls, plates were allowed to incubate for an additional 120 minutes at room temperature. All assays were performed in triplicate. Polarization was monitored using an EnVision Multilabel reader (Perkin-Elmer, Waltham, Mass.) by exciting the FP probe at 530±25 nm, and monitoring fluorescence intensity of both parallel and perpendicular polarized light at 579±25 nm. Readout was in millipolarization units (mP).
Signal gain and G factors were determined in wells containing 200 μM ADEP 2378, which had been previously verified (data not shown) as containing completely unbound ADEP 2591. Data collected was normalized to values obtained from positive (200 μM ADEP 2378) or negative (DMSO) controls. Curves were fit with non-linear regression using the equation “log [inhibitor] vs. Response-variable slope (four parameters)-symmetrical” in the program Prism 6 (GraphPad Software, La Jolla, Calif. USA, www.graphpad.com). The structures for ADEP 2378 and ADEP 2591 are shown above. ADEP 2378 is (E)-N—((S)-1-(((2R,6S,8aS,14aS,20S,23aS)-2,6-dimethyl-5,8,14,19,23-pentaoxooctadecahydro-1H,5H,14H,19H-pyrido[2,1-i]dipyrrolo[2,1-c:2′,1′-1][1]oxa[4,7,10,13]tetraazacyclohexadecin-20-yl)amino)-1-oxo-3-phenylpropan-2-yl)pent-2-enamide. ADEP 2591 is 5-(3-(3-((6S,9S,11aS,17S,20aS)-6,10-dimethyl-5,8,11,16,20-pentaoxo-17-((S)-2-((E)-pent-2-enamido)-3-phenylpropanamido)hexadecahydro-1H,5H,16H-dipyrrolo[2,1-c:2′,1′-1][1]oxa[4,7,10,13]tetraazacyclohexadecin-9-yl)propyl)thioureido)-2-(6-(dimethylamino)-3-(dimethyliminio)-3H-xanthen-9-yl)benzoate.
A general note: Fluorescence polarisation rises when a labelled molecule tumbles more slowly, as on binding a larger partner.

The nature of series [2]: Plasma protein binding, rapid equilibrium dialysis. It is filed as in vitro ADME, human. As to conditions: 10 μM. In outline: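 Compound spiked at 10 μM (0.1% DMSO) into human plasma, dialysed against DPBS pH 7.4 across 8 K MWCO RED membrane for 4 h at 37 °C with shaking. Both chambers quantified by LC-MS against warfarin internal standard; % free = buffer/plasma concentration ×100, % bound = 100 − % free.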

The test system of series [3] is S. aureus ATCC 29213. As to the kind of experiment: Minimal inhibitory concentration, microbroth dilution. To be noted: Staphylococcus aureus. It is filed as cell-based. In outline:
(§1)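 Compound was diluted twofold in the appropriate broth. Bacterial suspension (approx. 10^5 cfu/mL) was then added in equal volume, giving a maximum test concentration of 200 μM. After aerobic overnight incubation at 37 °C, wells were inspected visually for growth.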
(In general: In broth dilution the organism is exposed to a series of concentrations in liquid medium.)

Series [4] has as its system E. faecails. Described as above. Format: cell-based. As to conditions: Enterococcus faecalis. An outline of the steps: as §1
Where [5] appears, read: ATCC29213, MIC, read-out: Minimal Inhibitory Concentrations (μM) S. aureus ATCC 29213.
[6] abbreviates: MIC, read-out: Minimal Inhibitory Concentrations (μM) E. faecails.

In brackets after ≈: the same amount, converted by molar mass. Where two headings read alike, the source gives them in different places. Numbered stars: 1 amine (or outer) side, 2 acyl side, 3 side chain; on linkers, the order of the positions; unused ones are H or OH. Bridge positions count the residues as written; N and C are the ends. Square brackets hold non-standard residues; d marks the D form. Peptide text beside a SMILES is read from it. * marks the point of attachment. Piperazine(2S-CO,4-Me) = CN1CCN[C@H](C(=O)O)C1; Phe(3-OMe) = COc1cccc(C[C@H](N)C(=O)O)c1; Phe(3-Me) = Cc1cccc(C[C@H](N)C(=O)O)c1; NH(4-Cl-2-F-phenyl) = Fc1cc(Cl)ccc1N*; Pro(4R-Me) = C[C@H]1CN[C@H](C(=O)O)C1; NH(4-Et-phenyl) = CCc1ccc(N*)cc1; NH(4-Me-phenyl) = Cc1ccc(N*)cc1; aThr = C[C@H](O)[C@H](N)C(=O)O; Pip = O=C(O)[C@@H]1CCCCN1; X3 = c1cc2c(cc1N*)OCCO2; CO = O=C([*:1])[*:2]

T1 sequence (Q2G036 whole entry): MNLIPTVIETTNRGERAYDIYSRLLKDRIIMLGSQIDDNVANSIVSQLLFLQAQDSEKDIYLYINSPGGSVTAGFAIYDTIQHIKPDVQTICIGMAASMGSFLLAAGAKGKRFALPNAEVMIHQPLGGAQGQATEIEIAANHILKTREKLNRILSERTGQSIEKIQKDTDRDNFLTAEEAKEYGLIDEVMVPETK

`CCc1ccc(NC(=O)N[C@@H](Cc2cccc(C)c2)C(=O)N[C@H]2COC(=O)[C@@H]3C[C@@H](C)CN3C(=O)[C@H](C)NC(=O)[C@@H]3CN(C)CCN3C(=O)[C@@H]3CCCN3C2=O)cc1` [Compound 16, (S)-2-(3-(4-ETHYLPHENYL)UREIDO)-3-(M-TOLYL)-N-((6AS,12S,15AS,17R,21S,23AS)-2,17,21-TRIMETHYL-6,11,15,20,23-PENTAOXOOCTADECAHYDRO-2H,6H,11H,15H-PYRAZINO[2,1-I]DIPYRROLO[2,1-C:2′,1′-L][1]OXA[4,7,10,13]TETRAAZACYCLOHEXADECIN-12-YL)PROPANAMIDE] ({NH(4-Et-phenyl)-CO}-[Phe(3-Me)]SP[Piperazine(2S-CO,4-Me)]A[Pro(4R-Me)]; ester 2-C): in series [1], the concentration for half-maximal inhibition (IC50) – broadly, the midpoint of a concentration-inhibition curve – came out at 5.46 ± 0.2 µM. In series [2] (human, 4 h, pH 7.4), this compound yielded a Human of 98.5 ± 0.3%. The MIC amounted to 1.25 µM (≈ 1 µg/mL) in series [3] (setting [5]) and 0.156 µM (≈ 0.125 µg/mL) in series [4] (setting [6]).

In series [1], `Cc1cccc(C[C@H](NC(=O)Nc2ccc3c(c2)OCCO3)C(=O)N[C@@H]2C(=O)N3CCC[C@H]3C(=O)N3CCCC[C@H]3C(=O)N[C@@H](C)C(=O)N3C[C@H](C)C[C@H]3C(=O)O[C@H]2C)c1` [Compound 21, (S)-2-(3-(2,3-DIHYDROBENZO[B][1,4]DIOXIN-6-YL)UREIDO)-3-(M-TOLYL)-N-((2R,6S,8AS,14AS,20S,21S,23AS)-2,6,21-TRIMETHYL-5,8,14,19,23-PENTAOXOOCTADECAHYDRO-1H,5H,14H,19H-PYRIDO[2,1-I]DIPYRROLO[2,1-C:2′,1′-L][1]OXA[4,7,10,13]TETRAAZACYCLOHEXADECIN-20-YL)PROPANAMIDE] ({X3-CO}-[Phe(3-Me)][aThr]P[Pip]A[Pro(4R-Me)]; ester 2-C) yielded an IC50 of 3.74 ± 0.24 µM. The Human in series [2] (human, 4 h, pH 7.4) is listed as 97.3 ± 0.1%. The MIC in series [3] (setting [5]) and in series [4] (setting [6]) was 0.625 µM (≈ 0.519 µg/mL) in each case.

`COc1cccc(C[C@H](NC(=O)Nc2ccc(Cl)cc2F)C(=O)N[C@H]2COC(=O)[C@@H]3C[C@@H](C)CN3C(=O)[C@H](C)NC(=O)[C@@H]3CN(C)CCN3C(=O)[C@@H]3CCCN3C2=O)c1` [Compound 19, (S)-2-(3-(4-CHLORO-2-FLUOROPHENYL)UREIDO)-3-(3-METHOXYPHENYL)-N-((6AS,12S,15AS,17R,21S,23AS)-2,17,21-TRIMETHYL-6,11,15,20,23-PENTAOXOOCTADECAHYDRO-2H,6H,11H,15H-PYRAZINO[2,1-I]DIPYRROLO[2,1-C:2′,1′-L][1]OXA[4,7,10,13]TETRAAZACYCLOHEXADECIN-12-YL)PROPANAMIDE] ({NH(4-Cl-2-F-phenyl)-CO}-[Phe(3-OMe)]SP[Piperazine(2S-CO,4-Me)]A[Pro(4R-Me)]; ester 2-C): the IC50 in series [1] was found to be 6.05 ± 0.3 µM. The compound also gave a Human in series [2] (human, 4 h, pH 7.4) of 98.9 ± 0.2%. Moreover, the MIC in series [3] (setting [5]) and in series [4] (setting [6]) was 10 µM (≈ 8.41 µg/mL) throughout.

In series [1], `Cc1ccc(NC(=O)N[C@@H](Cc2cccc(C)c2)C(=O)N[C@@H]2C(=O)N3CCC[C@H]3C(=O)N3CCCC[C@H]3C(=O)N[C@@H](C)C(=O)N3C[C@H](C)C[C@H]3C(=O)O[C@H]2C)cc1` [Compound 1, (S)-3-(M-TOLYL)-2-(3-(P-TOLYL)UREIDO)-N-((2R,6S,8AS,14AS,20S,21S,23AS)-2,6,21-TRIMETHYL-5,8,14,19,23-PENTAOXOOCTADECAHYDRO-1H,5H,14H,19H-PYRIDO[2,1-I]DIPYRROLO[2,1-C:2′,1′-L][1]OXA[4,7,10,13]TETRAAZACYCLOHEXADECIN-20-YL)PROPANAMIDE] ({NH(4-Me-phenyl)-CO}-[Phe(3-Me)][aThr]P[Pip]A[Pro(4R-Me)]; ester 2-C) returned an IC50 of 7.48 ± 0.5 µM. For the same compound, the Human in series [2] (plasma binding, % Bound, human plasma) was 98.5%. For the same compound, the MIC turned out to be 0.313 µM (≈ 0.246 µg/mL) in series [3] (ATCC29213, read-out: Minimal Inhibitory Concentrations (μM) S. aureus ATCC 29213, MIC) and 1.25 µM (≈ 0.982 µg/mL) in series [4] (read-out: Minimal Inhibitory Concentrations (μM) E. faecails, MIC).
